Values quoted from earlier work, collected in US20180338945A1, “SKIN ADHESIVES, ANTIMICROBIAL COMPOSITIONS, ARTICLES, AND METHODS FOR THE USE THEREOF” (DERMALINK TECHNOLOGIES, INC., priority 2015, published 2018).

Key:
[1] = system: A. brasiliensis; conditions: pure LAE
[2] = system: E. coli; conditions: pure LAE

## CCCCCCCCCCCC(=O)N[C@@H](CCCNC(=N)N)C(=O)OCC [LAE, N^α-lauroyl-arginine ethyl ester]
[1]
  minimum inhibitory concentration (MIC): 32 micrograms per mL
[2]
  minimum inhibitory concentration (MIC): 16 micrograms per mL
